The text below walks through data of PMC12635268, “Novel antimicrobial peptides and peptide-microbiome crosstalk in Appalachian salamander skin” (NPJ Biofilms and Microbiomes, 2025).

Data set [1] deals with K. pneumoniae ATCC 700603. Briefly: microbe, parasite or virus in culture. The conditions noted are these: K. pneumoniae 700603; Week 1 (12/6/2023). The procedure: (§1) Antimicrobial susceptibility testing of the 20 synthesized peptides against 17 bacterial strains of clinical relevance in the ESKAPEE panel was conducted using minimum inhibitory concentration (MIC) assays following the broth microdilution method outlined by Parker et al.[91]. The ESKAPEE panel is comprised of fourteen American Type Culture Collection (ATCC) strains and three Multidrug Resistant Organism Repository and Surveillance Network (MRSN) bacterial strains. These strains represent at least one drug-susceptible strain and one drug-resistant strain for each bacterium to assess drug efficacy across various resistance mechanisms. This panel is comprised of the following bacterial species and strains: E. faecium (ATCC 19434, ATCC 49224), S. aureus (ATCC 25923, ATCC 43300), K. pneumoniae (ATCC 700603, ATCC 13883, MRSN 1320), A. baumannii (ATCC 17978, ATCC 19606, MRSN 959), P. aeruginosa (ATCC 15692, ATCC 27853, MRSN 5519), E. cloacae (ATCC 13047, ATCC 35549), and E. coli (ATCC 35218, ATCC 43888). Bacteria were grown in cation-adjusted Mueller-Hinton broth (CAMHB) to achieve a final inoculum of 1 × 10⁵ CFU/mL. CAMHB is selected for its batch-to-batch reproducibility, low levels of antimicrobial inhibitors, and ability to support the growth of most bacterial pathogens.
(§2) Briefly, lyophilized peptides were dissolved in 0.2% TFA + 0.4% BSA in water to 2.56 mg/mL, ultrasonicated for 20 min, diluted 10-fold into CAMHB, and then serially diluted 2-fold in 0.02% TFA + 0.04% BSA in CAMHB and assayed at a concentration of 0.25 to 128 μg/mL. Assays were set up using the Tecan Freedom EVO liquid handling robot and software (Tecan, Switzerland) with 50 μL of bacterial inoculum and 50 μL of peptide transferred into round-bottom 96-well microtiter plates. Each plate assay was performed in duplicate and incubated at 37 °C for 20 h without agitation. Bacterial growth was assessed using the BIOMIC V3 Image Analysis system (Giles Scientific, USA) and the MIC values were determined visually according to the Clinical and Laboratory Standards Institute (CLSI) guidelines.

For a further data set, the system named is E. faecium ATCC 49224. Briefly: microbe, parasite or virus in culture. The procedure:
as §1, §2

The next data set concerns K. pneumoniae ATCC 13883. Briefly: microbe, parasite or virus in culture. The procedure: as §1, §2
The next data set has as its system E. cloacae ATCC 13047. Briefly: microbe, parasite or virus in culture. The procedure: as §1, §2
The test system of a further data set is E. cloacae ATCC 35549. Briefly: microbe, parasite or virus in culture. The procedure: as §1, §2
The test system of another data set is A. baumannii ATCC 17978. Briefly: microbe, parasite or virus in culture. The procedure: as §1, §2
The subject of the next data set is E. coli ATCC 43888. Briefly: microbe, parasite or virus in culture. The procedure: as §1, §2
The next data set has as its system S. aureus ATCC 43300. Briefly: microbe, parasite or virus in culture. The conditions noted are these: S. aureus 43300; Week 1 (12/6/2023). The procedure: as §1, §2
In the next data set the test system is A. baumannii ATCC 19606. Briefly: microbe, parasite or virus in culture. The procedure: as §1, §2
The subject of the next data set is P. aeruginosa ATCC 27853. Briefly: microbe, parasite or virus in culture. The procedure: as §1, §2
Another data set has as its system E. coli ATCC 35218. Briefly: microbe, parasite or virus in culture. The conditions noted are these: E. coli 35218; Week 1 (12/6/2023). The procedure: as §1, §2
A further data set deals with P. aeruginosa MRSN 5519. Briefly: microbe, parasite or virus in culture. The procedure: as §1, §2
For another data set, the system named is E. faecium ATCC 19434. Briefly: microbe, parasite or virus in culture. The procedure:
as §1, §2

The next data set deals with S. aureus ATCC 25923. Briefly: microbe, parasite or virus in culture. The procedure:
as §1, §2

On the set-up of data set [2]: method as in Biomatik (vendor). The conditions noted are these: 1.0 mg peptide in 1.0 ml solvent; peptides synthesized by Biomatik; ref Biomatik (vendor); cited from earlier work.
For the next data set, the system named is P. aeruginosa PA01 (Si). Briefly: microbe, parasite or virus in culture. The data set is classed as cell-based. From the text:
Supplement 41522_2025_837_MOESM13_ESM.xlsx, sheet "Table_S13_ESKAPEE-MIC" | column: Bacterial MIC (µg/mL)

The subject of another data set is A. baumannii 5075. The conditions noted are these: Week 1 (12/6/2023).

Like-named read-outs stand apart in the source and are kept apart here. Peptide text beside a SMILES is read from it.

With `N=C(N)NCCC[C@H](N)C(=O)N1CCC[C@H]1C(=O)N1CCC[C@H]1C(=O)NCC(=O)N[C@@H](Cc1ccccc1)C(=O)N[C@@H](CO)C(=O)N1CCC[C@H]1C(=O)N[C@@H](Cc1ccccc1)C(=O)O` [PrMb-Eb14], the “Bacterial MIC” value in [1] is recorded as more than 128.000 µg/mL; in the data set with E. faecium ATCC 49224 (E. faecium 49224, Week 1 (12/6/2023)) it was more than 128.000 µg/mL; in the data set with K. pneumoniae ATCC 13883 (K. pneumoniae 13883, Week 1 (12/6/2023)), more than 128.000 µg/mL; in the data set on E. cloacae ATCC 13047 (E. cloacae 13047, Week 1 (12/6/2023)) it was more than 128.000 µg/mL; in the data set with E. cloacae ATCC 35549 (E. cloacae 35549, Week 1 (12/6/2023)) it was more than 128.000 µg/mL; in the data set with A. baumannii ATCC 17978 (A. baumannii 17978, Week 1 (12/6/2023)), more than 128.000 µg/mL. Moreover, the “Bacterial MIC” value in the data set with E. coli ATCC 43888 (E. coli 43888, Week 1 (12/6/2023)) is more than 128.000 µg/mL; in the data set with S. aureus ATCC 43300, more than 128.000 µg/mL; with A. baumannii ATCC 19606 (A. baumannii 19606, Week 1 (12/6/2023)), more than 128.000 µg/mL; in the data set on P. aeruginosa ATCC 27853 (P. aeruginosa 27853, Week 1 (12/6/2023)), more than 128.000 µg/mL; with E. coli ATCC 35218, more than 128.000 µg/mL; with P. aeruginosa MRSN 5519 (P. aeruginosa 5519, Week 1 (12/6/2023)) it was more than 128.000 µg/mL. In addition, the “Bacterial MIC” value in the data set on E. faecium ATCC 19434 (E. faecium 19434, Week 1 (12/6/2023)) is more than 128.000 µg/mL; with S. aureus ATCC 25923 (S. aureus 25923, Week 1 (12/6/2023)), more than 128.000 µg/mL; in the data set with P. aeruginosa PA01 (Si) (P. aeruginosa PA01 (Si), not typical ESKAPEE strain, Week 1 (12/6/2023)) it was more than 128.000 µg/mL; with A. baumannii 5075, more than 128.000 µg/mL; in the data set with K. pneumoniae 4640 (K. pneumoniae 4640, Week 1 (12/6/2023)) it was more than 128.000 µg/mL. Moreover, in data set [2], the “Suggest solvent (solubility)” value was 1.0mg peptide soluble in 1.0ml H2O.

Take `CC[C@H](C)[C@H](N)C(=O)N[C@@H](CC(C)C)C(=O)N[C@@H](CCCNC(=N)N)C(=O)N[C@@H](CCCCN)C(=O)N1CCC[C@H]1C(=O)N[C@@H](CCC(=O)O)C(=O)N[C@@H](CCCCN)C(=O)N[C@@H](CC(=O)O)C(=O)N[C@@H](CC(=O)O)C(=O)N[C@@H](CC(=O)O)C(=O)N[C@H](C(=O)N[C@@H](CO)C(=O)N[C@@H](CO)C(=O)N[C@@H](CCCNC(=N)N)C(=O)N[C@H](C(=O)NCC(=O)N[C@@H](Cc1ccc(O)cc1)C(=O)N[C@@H](CC(C)C)C(=O)N[C@@H](Cc1ccccc1)C(=O)N[C@@H](CS)C(=O)N[C@@H](CS)C(=O)N[C@@H](CCCCN)C(=O)N[C@@H](CCSC)C(=O)N[C@@H](CCCNC(=N)N)C(=O)N[C@@H](CC(C)C)C(=O)N[C@@H](CS)C(=O)N[C@@H](C)C(=O)N[C@@H](CS)C(=O)N[C@@H](CCCNC(=N)N)C(=O)N[C@@H](CCCNC(=N)N)C(=O)N[C@@H](CO)C(=O)O)[C@@H](C)CC)[C@@H](C)O` [Tr-Eb4] (H-ILRKPEKDDDTSSRIGYLFCCKMRLCACRRS-OH; N-terminus and C-terminus assumed): the “Bacterial MIC” value in the data set on E. faecium ATCC 49224 (ATCC 49224, 20 h) is listed as more than 128.000 µg/mL; in the data set with K. pneumoniae ATCC 13883 (ATCC 13883, 20 h), more than 128.000 µg/mL; in the data set with E. cloacae ATCC 13047 (ATCC 13047, 20 h) it was more than 128.000 µg/mL; with E. cloacae ATCC 35549 (ATCC 35549, 20 h), more than 128.000 µg/mL; in the data set with A. baumannii ATCC 17978 (ATCC 17978, 20 h), more than 128.000 µg/mL; with E. coli ATCC 43888 (ATCC 43888, 20 h), more than 128.000 µg/mL. In addition, the “Bacterial MIC” value in the data set on A. baumannii ATCC 19606 (ATCC 19606, 20 h) is given as more than 128.000 µg/mL; in the data set on P. aeruginosa ATCC 27853 (ATCC 27853, 20 h) it was more than 128.000 µg/mL; with P. aeruginosa MRSN 5519 (MRSN 5519, 20 h), more than 128.000 µg/mL; in the data set on E. faecium ATCC 19434 (ATCC 19434, 20 h), more than 128.000 µg/mL; in the data set with S. aureus ATCC 25923 (ATCC 25923, 20 h), more than 128.000 µg/mL; in the data set on P. aeruginosa PA01 (Si) (Si), more than 128.000 µg/mL. Also, the “Bacterial MIC” value in the data set on K. pneumoniae 4640 (4640, 20 h) is reported as more than 128.000 µg/mL. For the same compound, the “Suggest solvent (solubility)” value in data set [2] is recorded as 1.0mg peptide soluble in 1.0ml DMSO.

On to `CC[C@H](C)[C@H](NC(=O)[C@H](CCSC)NC(=O)[C@H](CS)NC(=O)[C@H](CC(C)C)NC(=O)[C@@H](NC(=O)[C@H](CS)NC(=O)[C@H](CS)NC(=O)[C@H](CCSC)NC(=O)[C@H](CS)NC(=O)[C@H](CO)NC(=O)[C@H](CC(C)C)NC(=O)[C@H](CCC(N)=O)NC(=O)[C@H](CCCCN)NC(=O)[C@H](Cc1c[nH]cn1)NC(=O)[C@H](CCC(N)=O)NC(=O)[C@H](Cc1c[nH]c2ccccc12)NC(=O)[C@@H](NC(=O)[C@@H](NC(=O)[C@H](CCC(=O)O)NC(=O)[C@@H](NC(=O)[C@H](CC(=O)O)NC(=O)[C@@H](NC(=O)[C@H](CC(C)C)NC(=O)[C@H](CC(=O)O)NC(=O)[C@@H](N)CCCCN)[C@@H](C)CC)[C@@H](C)O)[C@@H](C)O)[C@@H](C)O)C(C)C)C(=O)N[C@@H](C)C(=O)N[C@@H](CCCCN)C(=O)N[C@@H](CCCNC(=N)N)C(=O)N[C@@H](CS)C(=O)N[C@@H](CS)C(=O)O` [Tr-Pc15] (H-KDLIDTETTWQHKQLSCMCCVLCMIAKRCC-OH; N-terminus and C-terminus assumed), for which the “Bacterial MIC” value in the data set with E. faecium ATCC 49224 (ATCC 49224, 20 h) is reported as more than 128.000 µg/mL; with K. pneumoniae ATCC 13883 (ATCC 13883, 20 h), more than 128.000 µg/mL; in the data set with E. cloacae ATCC 13047 (ATCC 13047, 20 h), more than 128.000 µg/mL; with E. cloacae ATCC 35549 (ATCC 35549, 20 h), more than 128.000 µg/mL; with A. baumannii ATCC 17978 (ATCC 17978, 20 h) it was more than 128.000 µg/mL; in the data set with E. coli ATCC 43888 (ATCC 43888, 20 h), more than 128.000 µg/mL. Further, the “Bacterial MIC” value in the data set with A. baumannii ATCC 19606 (ATCC 19606, 20 h) is on record as more than 128.000 µg/mL; with P. aeruginosa ATCC 27853 (ATCC 27853, 20 h), more than 128.000 µg/mL; with P. aeruginosa MRSN 5519 (MRSN 5519, 20 h), more than 128.000 µg/mL; in the data set with E. faecium ATCC 19434 (ATCC 19434, 20 h) it was more than 128.000 µg/mL; in the data set on S. aureus ATCC 25923 (ATCC 25923, 20 h), more than 128.000 µg/mL; with P. aeruginosa PA01 (Si) (Si), more than 128.000 µg/mL. In addition, the “Bacterial MIC” value in the data set on K. pneumoniae 4640 (4640, 20 h) is given as more than 128.000 µg/mL. Moreover, in data set [2], the “Suggest solvent (solubility)” value is 1.0mg peptide soluble in 1.0ml DMSO.
